This is an account of results in US10858316B2, “Small molecule inhibitors of the MCL-1 oncoprotein and uses thereof” (University of Maryland, Baltimore, priority 2015, dated 2020).

Assay [1] deals with HL-60 cell line. Nature of the assay: Cell viability of HL-60 cell line after treating with inhibitors for 24 hrs. Type of assay: cell-based, human. The source says: The moderate cell grow inhibition ability for the two carboxylic acid ester prodrugs 20 and 21 could be attributed to the enzymatic hydrolysis that generated a free acid molecule (13ag) to function as an Mcl-1 inhibitor in the cells.

The target of assay [2] is Mcl-1 (Homo sapiens (Human), UniProt Q07820). Briefly: Fluorescence polarization competition assay (FPCA), Mcl-1 / FITC-Bak BH3 peptide. Type of assay: binding. To be noted: for Ki: read-out: Mcl-1 Ki; for Mcl-1 Exp ΔG: ΔG=−RTlnKi from experimental Ki. The method, boiled down: (§1)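 Purified Mcl-1 (affinity tag cleaved, size-exclusion polished) competed against FITC-labeled Bak-BH3 peptide, read by fluorescence polarization. IC50 from Hill-equation fit; Ki derived from IC50 by the Nikolovska-Coleska equation.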
Mcl-1 (Homo sapiens (Human), UniProt Q07820), sequence (Q07820 172-327): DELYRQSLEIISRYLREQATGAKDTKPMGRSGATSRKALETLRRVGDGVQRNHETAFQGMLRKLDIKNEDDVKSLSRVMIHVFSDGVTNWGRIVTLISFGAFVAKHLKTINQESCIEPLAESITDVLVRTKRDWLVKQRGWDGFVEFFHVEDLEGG

The target of assay [3] is Bcl-xL (Homo sapiens (Human), UniProt Q07817). Briefly: Fluorescence polarization competition assay, Bcl-xL. Type of assay: binding. The note with it: for Ki: Ki from IC50 by Nikolovska-Coleska equation, NA = no activity, read-out: Bcl-xL Ki; for Bcl-xL Exp ΔG: ΔG from experimental Ki. On the procedure: Fluorescence polarization experiments were conducted using a BMG PHERAstar FS multimode microplate reader equipped with two PMTs for simultaneous measurements of the perpendicular and parallel fluorescence emission. The assays were performed in black polypropylene 384-well microplate (Costar) with a final volume of 20 microliter. […] Regression analysis was carried out using Origin (OriginLab, Northampton, Mass.) to fit the data to the Hill equation (1) to determine the initial binding affinity (KD) and the IC50 in the FPCA. For the fluorescence polarization competition titrations, an equation derived by Nikolovska-Coleska et al. was used to calculate the Ki from the IC50 data.
Bcl-xL, sequence (Q07817 whole entry): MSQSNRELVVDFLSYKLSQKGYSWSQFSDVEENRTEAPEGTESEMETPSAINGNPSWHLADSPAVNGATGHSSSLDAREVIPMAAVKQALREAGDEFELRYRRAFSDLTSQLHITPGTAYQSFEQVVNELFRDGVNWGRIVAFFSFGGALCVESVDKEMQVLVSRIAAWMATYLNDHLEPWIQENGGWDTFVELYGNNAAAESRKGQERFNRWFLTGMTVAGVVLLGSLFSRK

Assay [4] has as its system Mcl-1. Nature of the assay: Fluorescence polarization competition assay (FPCA), Mcl-1 / FITC-Bak BH3 peptide. Type of assay: binding, human. The note with it: for Selectivity, Ki (Bcl-xL) divided by Ki (Mcl-1): Mcl-1 over Bcl-xL; for Exp. ΔG diff.: between Mcl-1 and Bcl-xL, positive favors Mcl-1. The method, boiled down: as §1
For orientation: In fluorescence polarisation assays a small probe gives low polarisation when free and higher when bound to something large.

[5] abbreviates: read-out: HL-60 IC50 0.5% FBS, 0.5% FBS.
[6] abbreviates: read-out: HL-60 IC50 10% FBS, 10% FBS.
[7] abbreviates: FPCA with FITC-Bak, Ki from IC50 by Nikolovska-Coleska equation.

Read-outs that look alike come from different tables or passages of the source.

Turning to `CC(=O)OCOC(=O)c1ccc(N(CC(C)C)S(=O)(=O)c2ccc(Oc3ccccc3)cc2)cc1O` [LC-4-141 21], the results for the half-inhibitory concentration (IC50) in assay [1] (setting [5]) and in assay [1] (setting [6]) were 46.4 µM and more than 120 µM, respectively.
For `Cc1cc(CCCN(Cc2ccccc2)c2ccc(C(=O)O)c(O)c2)cc(C)c1Cl` [LC-5-188 35], the inhibition constant (Ki) in assay [2] (setting [7]) was determined as 1440 nM; in assay [3] it was 2980 ± 406 nM. Moreover, the concentration for half-maximal inhibition (IC50) worked out at 7.36 µM in assay [1] (setting [5]) and 88 µM in assay [1] (setting [6]).
On to `Cc1cc(C)cc(Oc2ccc(NS(=O)(=O)c3cc(C(=O)O)c(O)c4ccccc34)cc2)c1` [Compound 3bf, 4-(N-(4-(3,5-Dimethylphenoxy)phenyl)sulfamoyl)-1-hydroxy-2-naphthoic Acid], for which the inhibition constant Ki in assay [2] (setting [7]) came out at 284 nM; in assay [3], 390 ± 100 nM. Also, the “Selectivity, Ki (Bcl-xL) divided by Ki (Mcl-1)” value (from here on “Selectivity, Ki (Bcl-xL) divided”) in assay [4] is 1.4.
For `O=C(O)c1cc(S(=O)(=O)Nc2ccc([N+](=O)[O-])cc2)c2ccccc2c1O` [Compound 3ac, 1-Hydroxy-4-(N-(4-nitrophenyl)sulfamoyl)-2-naphthoic Acid], in that order: 4490 ± 1200 nM, 23300 ± 2500 nM and 5.2.
On to `Cc1cc(C)cc(Oc2ccc(NS(=O)(=O)c3cc(C(=O)O)c(O)c4ccccc34)cc2)c1` [3bf; SF-5-306], for which the “Mcl-1 Exp ΔG” value in assay [2] was -8.93 kcal/mol. Also, in assay [4], the “Exp. ΔG diff.” value stood at 0.19 kcal/mol. Further, in assay [3], the “Bcl-xL Exp ΔG” value is -8.74 kcal/mol.
For `O=C(O)c1cc(S(=O)(=O)NCC2CCCCC2)c2ccccc2c1O` [3g; MEL-3-006], in that order: -7.00 kcal/mol, 1.40 kcal/mol and -5.60 kcal/mol.
Consider `Cc1cc(Oc2ccc(S(=O)(=O)N(Cc3ccccc3)c3ccc(C(=O)NS(=O)(=O)c4ccc(NCC5CCOCC5)c([N+](=O)[O-])c4)c(O)c3)cc2)cc(C)c1Cl` [LC-5-131 31], for which the inhibition constant (Ki) in assay [2] (setting [7]) was determined as 800 ± 70 nM; in assay [2] (FPCA) it was 800 nM; in assay [3] it was 1620 ± 176 nM. The IC50 in assay [1] (setting [5]) was 9.96 µM; in assay [1] (setting [6]) it was more than 120 µM.
In the same order, the values of `Cc1cc(Oc2ccc(S(=O)(=O)N(CC(C)C)c3ccc(O)c(C(=O)O)c3)cc2)cc(C)c1Cl` [JY-5-304 18bd] are 586 ± 41 nM, 586 nM, 2900 ± 191 nM, 9.82 µM and more than 120 µM.
`O=C(O)c1cc(S(=O)(=O)Nc2ccc(Oc3cccc4ccccc34)cc2)c2ccccc2c1O` [Compound 3bd, 1-Hydroxy-4-(N-(4-(naphthalen-1-yloxy)phenyl)sulfamoyl)-2-naphthoic Acid]: the Ki turned out to be 82 nM in assay [2] (setting [7]) and 220 ± 60 nM in assay [3]. Further, the “Selectivity, Ki (Bcl-xL) divided” value in assay [4] is 3.7.
With `O=C(O)c1cc(S(=O)(=O)Nc2ccc(Oc3cccc4ccccc34)cc2)c2ccccc2c1O` [3bd; SF-5-300], in assay [2], the “Mcl-1 Exp ΔG” value is -9.66 kcal/mol. In addition, in assay [4], the “Exp. ΔG diff.” value came out at 0.58 kcal/mol. The “Bcl-xL Exp ΔG” value in assay [3] is -9.08 kcal/mol.
Consider `O=C(O)c1cc(S(=O)(=O)Nc2ccc3ccccc3c2)c2ccccc2c1O` [3q; EW-2-057], for which, in assay [2], the “Mcl-1 Exp ΔG” value is -7.28 kcal/mol. Moreover, the “Exp. ΔG diff.” value in assay [4] was 1.60 kcal/mol. The “Bcl-xL Exp ΔG” value in assay [3] was -5.68 kcal/mol.
Regarding `O=C(O)c1cc(S(=O)(=O)Nc2ccc3ccccc3c2)c2ccccc2c1O` [Compound 3q, 1-Hydroxy-4-(N-(naphthalen-2-yl)sulfamoyl)-2-naphthoic Acid], the Ki in assay [2] (setting [7]) amounted to 4580 ± 1560 nM; in assay [3] it was 68500 ± 36300 nM. Besides, the “Selectivity, Ki (Bcl-xL) divided” value in assay [4] is listed as 15.
On to `O=C(O)c1cc(S(=O)(=O)Nc2ccc(Br)cc2)c2ccccc2c1O` [1; 3a], for which, in assay [2], the “Mcl-1 Exp ΔG” value is -7.58 kcal/mol. The “Exp. ΔG diff.” value in assay [4] stood at 1.73 kcal/mol. The “Bcl-xL Exp ΔG” value in assay [3] was -5.85 kcal/mol.
In the same order, the values of `O=C(O)c1cc(S(=O)(=O)NCc2ccc(Cl)cc2)c2ccccc2c1O` [3f; SF-5-264] are -6.38 kcal/mol, 1.65 kcal/mol and -4.73 kcal/mol.
In the same order, the values of `O=C(O)c1cc(S(=O)(=O)Nc2ccc(Oc3cccc(Br)c3)cc2)c2ccccc2c1O` [3be; SF-5-303] are -9.47 kcal/mol, 0.58 kcal/mol and -8.89 kcal/mol.
For the molecule `O=C(O)c1cc(S(=O)(=O)Nc2ccc(Oc3cccc(Br)c3)cc2)c2ccccc2c1O` [Compound 3be, 4-(N-(4-(3-Bromophenoxy)phenyl)sulfamoyl)-1-hydroxy-2-naphthoic Acid], the inhibition constant Ki was determined as 114 nM in assay [2] (setting [7]) and 300 ± 40 nM in assay [3]. In assay [4], the “Selectivity, Ki (Bcl-xL) divided” value stood at 3.8.
For `O=C(O)c1cc(S(=O)(=O)Nc2ccc(Oc3ccc(Cl)cc3Cl)cc2)c2ccccc2c1O` [Compound 3bg, 4-(N-(4-(2,4-Dichlorophenoxy)phenyl)sulfamoyl)-1-hydroxy-2-naphthoic Acid], in that order: 79 nM, 190 ± 20 nM and 2.4.
`COC(=O)c1ccc(N(CC(C)C)S(=O)(=O)c2ccc(Oc3ccccc3)cc2)cc1O` [LC-4-131 20]: the inhibition constant Ki in assay [2] (setting [7]) is more than 500000 nM. For the same molecule, the concentration for half-maximal inhibition (IC50) in assay [1] (setting [5]) stood at 68.1 µM; in assay [1] (setting [6]) it was 76.4 µM.
Take `O=C(O)c1cc(S(=O)(=O)NCc2ccc(Cl)cc2)c2ccccc2c1O` [Compound 3f, 4-(N-(4-Chlorobenzyl)sulfamoyl)-1-hydroxy-2-naphthoic Acid]: the Ki in assay [2] (setting [7]) was 21000 ± 3900 nM; in assay [3] it was 338000 ± 203000 nM. For the same molecule, the “Selectivity, Ki (Bcl-xL) divided” value in assay [4] is listed as 16.
`Cc1cc(Oc2ccc(N(CC(C)C)S(=O)(=O)c3cc(C(=O)O)c(O)c4ccccc34)cc2)cc(C)c1Cl` [Compound 3bj, 4-(N-(4-(4-Chloro-3,5-dimethylphenoxy)phenyl)-N-isobutylsulfamoyl)-1-hydroxy-2-naphthoic Acid]: the Ki in assay [2] (setting [7]) came to 80 ± 19 nM; in assay [3], 170 ± 60 nM. Also, the “Selectivity, Ki (Bcl-xL) divided” value in assay [4] was found to be 2.1.
On to `Cc1ccc(Oc2ccc(NS(=O)(=O)c3cc(C(=O)O)c(O)c4ccccc34)cc2)cc1` [Compound 3bc, 1-Hydroxy-4-(N-(4-(p-tolyloxy)phenyl)sulfamoyl)-2-naphthoic Acid], for which the figures for the Ki in assay [2] (setting [7]) and in assay [3] were 335 nM and 840 ± 50 nM, respectively. The “Selectivity, Ki (Bcl-xL) divided” value in assay [4] is 2.5.
As to `Cc1ccc(Oc2ccc(NS(=O)(=O)c3cc(C(=O)O)c(O)c4ccccc34)cc2)cc1` [3bc; SF-5-301], in assay [2], the “Mcl-1 Exp ΔG” value was -8.83 kcal/mol. In addition, the “Exp. ΔG diff.” value in assay [4] came to 0.55 kcal/mol. For the same molecule, the “Bcl-xL Exp ΔG” value in assay [3] is -8.28 kcal/mol.
In the same order, the values of `O=C(O)c1cc(S(=O)(=O)Nc2ccccc2C(F)(F)F)c2ccccc2c1O` [3u; TA-1-017] are -7.35 kcal/mol, 0.92 kcal/mol and -6.43 kcal/mol.
In the case of `O=C(O)c1cc(S(=O)(=O)Nc2ccc(Oc3ccc(Cl)cc3Cl)cc2)c2ccccc2c1O` [3bg; SF-5-302], in assay [2], the “Mcl-1 Exp ΔG” value was -9.68 kcal/mol. For the same molecule, the “Exp. ΔG diff.” value in assay [4] was 0.52 kcal/mol. Moreover, the “Bcl-xL Exp ΔG” value in assay [3] is -9.16 kcal/mol.
As for `O=C(O)c1cc(S(=O)(=O)NCC2CCCCC2)c2ccccc2c1O` [Compound 3g, 4-(N-(Cyclohexylmethyl)sulfamoyl)-1-hydroxy-2-naphthoic Acid], the Ki amounted to 7310 ± 1420 nM in assay [2] (setting [7]) and 77600 ± 14300 nM in assay [3]. Moreover, the “Selectivity, Ki (Bcl-xL) divided” value in assay [4] was determined as 11.
With `O=C(O)c1cc(S(=O)(=O)Nc2ccc(Br)cc2Br)c2ccccc2c1O` [3o; SF-5-290], in assay [2], the “Mcl-1 Exp ΔG” value is -8.69 kcal/mol. In addition, the “Exp. ΔG diff.” value in assay [4] was 1.01 kcal/mol. Moreover, the “Bcl-xL Exp ΔG” value in assay [3] is -7.68 kcal/mol.
For the molecule `Cc1cc(Oc2ccc(NS(=O)(=O)c3cc(C(=O)O)c(O)c4ccccc34)cc2)cc(C)c1Cl` [Compound 3bi, 4-(N-(4-(4-Chloro-3,5-dimethylphenoxy)phenyl)sulfamoyl)-1-hydroxy-2-naphthoic Acid], the Ki amounted to 117 ± 60 nM in assay [2] (setting [7]) and 480 ± 50 nM in assay [3]. Also, in assay [4], the “Selectivity, Ki (Bcl-xL) divided” value is reported as 4.1.
For the molecule `O=C(O)c1cc(S(=O)(=O)Nc2ccc(Br)cc2Br)c2ccccc2c1O` [Compound 3o, 4-(N-(2,4-Dibromophenyl)sulfamoyl)-1-hydroxy-2-naphthoic Acid], the inhibition constant (Ki) in assay [2] (FPCA) is 420 nM; in assay [3], 2310 ± 1350 nM. For the same molecule, the “Selectivity, Ki (Bcl-xL) divided” value in assay [4] was found to be 5.5.
`COc1ccc(NS(=O)(=O)c2cc(C(=O)O)c(O)c3ccccc23)cc1` [Compound 3z, 1-Hydroxy-4-(N-(4-methoxyphenyl)sulfamoyl)-2-naphthoic Acid]: the values for the Ki in assay [2] (setting [7]) and in assay [3] were 11900 ± 2500 nM and 71900 ± 21000 nM, respectively. In addition, the “Selectivity, Ki (Bcl-xL) divided” value in assay [4] is 6.
`O=C(O)c1cc(S(=O)(=O)Nc2ccc(Br)cc2)c2ccccc2c1O` [Compound 3a, 4-(N-(4-bromophenyl)sulfamoyl)-1-hydroxy-2-naphthoic Acid]: the Ki in assay [2] (setting [7]) was 2760 nM; in assay [3], 51400 ± 31300 nM. Further, in assay [2] (FPCA, read-out: IC50 disruption of Mcl-1-Bak-BH3 PPI), the concentration for half-maximal inhibition (IC50) is 10.9 µM. In addition, the “Selectivity, Ki (Bcl-xL) divided” value in assay [4] was determined as 19.

Usually IC50 stands for the concentration needed to halve the response being measured. What is called Ki is a measure of affinity in units of concentration, obtained from inhibition or displacement.
